In patent US8450336B2, “Use of D-serine derivatives for the treatment of anxiety disorders” (priority 2006, dated 2013):
“And” between values parts separate entries of the source, which are not always exact repeats. Identical values can stand only once.

Columns and labels:
[1] = tested on: Sprague-Dawley rats; assay: Conditioned Emotional Response (CER) assay; format: in vivo; conditions: for Magnitude of the SR effect compared with diazepam: diazepam 2 mg/kg i.p; for Total number lever press: 40 min test session; for Total number lever press / Suppression ratio (SR): mean±SEM; for Suppression ratio (SR): at least 10 rats, *p<0.05 vs vehicle; for Efficacy in the CER assay (effect on SR), in words: rat, in vivo
Description: Male, Sprague-Dawley rats of approximate body weight 350-450 g were placed on a restricted food diet (45 min free access per day) and trained over a 1-2 week period to press a lever for food reward (45 mg food pellet). […] Test session length was for a 40 min test period, and test sessions were run 5 days/week. Once stable response rates were attained, 2 periods of a 2 min light and tone cue (conditioning stimulus, CS) was introduced into the test session. The 2 min CS was terminated by a 0.5 s unavoidable footshock of 0.3-0.8 mA intensity (UCS). The first CS-UCS was at approximately 10 min (range 5-15 min) and the second CS-UCS pairing at approximately 30 min (range 25-35 min) within the test session. On drug test days, and occasional training days, footshock was not delivered. The number of lever presses recorded during the two 2 min CS periods (response A), and the number of lever presses recorded in the 2 min periods immediately prior to the two CS periods (response B) were measured and a suppression ratio (SR) was calculated according to the formula (A/A+B). Thus a SR of 0 reflects no responding during the CS periods, i.e. a complete suppression of lever pressing for food by the CS, and a SR of 0.5 reflects equivalent responding during both the CS and 2 min period prior to CS, i.e. no suppression of lever pressing for food by the CS. Thus in drug untreated animals, SR value was typically 0-0.1 and established anti-anxiety agents such as diazepam increased this value to 0.4-0.5 (for literature examples see Stanhope and Dourish (1996) Psychopharmacol. 128: 293-303; Mirza et al (2005) Psychopharmacol. 180: 159-168). In addition to SR, the total number of lever presses emitted by the animals over the 40 min test session was measured.
Drug testing was conducted according to a repeated measures design, with each animal receiving each dose of drug treatment or vehicle control in a balanced design. Typically drug testing was conducted on Tuesdays and Fridays, with the animals drug untreated but otherwise run for baseline purposes. In each experiment a standard dose of diazepam (2 mg/kg i.p) was included as a positive control.

[2] = tested on: CD-1 mice; assay: Marble Burying Assay; format: in vivo; conditions: for Number of marbles buried: 22 marbles, 30 min, mean±SEM, at least 8 mice
Description: (§1) Male, experimentally naïve CD-1 mice of body weight range 25-35 g were used in these studies. Following a pretreatment with test drug or vehicle control the animals were singly placed within a Perspex chamber of dimension (48 cm×28 cm×20 cm; L×W×H) containing fresh sawdust bedding onto which 22 marbles were evenly spaced on the surface. After a 30 min period, the mice were removed and the number of marbles that were covered by at least ⅔rd by sawdust were counted as buried. Typically mice will bury a significant proportion of the marbles, probably to hide the potential threat posed by the marbles which represent a novel stimulus to the animal. […] One interpretation for this effect is that diazepam reduces the threat perceived to the animal by the close presence of the marbles (Broekkamp et al, 1986 Eur. J. Pharmacol. 126: 223-229; Nicolas et al, 2006 Eur. J. Pharmacol. 547; 106-115). In a separate group of sex, age and weight matched CD-1 mice, equivalent doses of test compound were evaluated on motor function using a fixed speed (16 r.p.m) rotorod assay. The best score from 3 attempts was recorded, with the maximum test duration of 60 s. Testing was conducted at 40 min post injection, i.e. approximate mid-point of the marble-burying assay.
Drug testing was run according to a between subjects design. […] The (S)-enantiomer of Lacosamide was ineffective in this assay.

[3] = tested on: CD-1 mice; assay: Fixed speed (16 r.p.m) rotorod assay of motor function; format: in vivo; conditions: median of at least 4 mice, maximum score=60 s, 40 min post injection
Description: as §1

[4] = tested on: Sprague-Dawley rats; conditions: drug untreated animals typically 0-0.1; literature examples; cited from earlier work
[5] = tested on: CD-1 mice; conditions: at doses with no obvious effect on general motor function; literature; cited from earlier work
[6] = dose 3 (mg/kg), i.p or oral route
[7] = dose 10 (mg/kg), i.p or oral route
[8] = dose 30 (mg/kg), i.p or oral route
[9] = dose 2 (2 mg/kg i.p, positive control), 2 mg/kg

SMILES: CC(=O)N[C@H](COC(F)F)C(=O)NCc1ccccc1 [Example 19.1, (2R)-2-(Acetylamino)-N-benzyl-3-(difluoromethoxy)propanamide]
- Magnitude of the SR effect compared with diazepam [1]: equivalent to diazepam
- Total number lever press ([1]; dose 3 (mg/kg)): 1169 ± 145
- Suppression ratio (SR) ([1]; dose 3 (mg/kg)): 0.16 ± 0.03
- Total number lever press ([1]; dose 10 (mg/kg)): 1093 ± 169
- Suppression ratio (SR) ([1]; dose 10 (mg/kg)): 0.15 ± 0.05
- Total number lever press ([1]; dose 30 (mg/kg)): 724 ± 135
- Suppression ratio (SR) ([1]; dose 30 (mg/kg)): 0.38 ± 0.04*
- Efficacy in the CER assay (effect on SR), in words [1]: active in increasing the SR in a dose-related manner
- Number of marbles buried [2, 6]: 17.0 ± 1.1
- Number of marbles buried [2, 7]: 9.7 ± 2.3
- Number of marbles buried [2, 8]: 2.3 ± 2.0
- Efficacy in the marble burying assay, in words ([2]; mouse, in vivo): active in decreasing marble burying in a dose-related manner
- Rotorod score ([3]; dose 3): 60 s
- Rotorod score ([3]; dose 10): 60 s
- Rotorod score ([3]; dose 30): 13 s
- melting point: 186.9 °C

SMILES: COC[C@H](NC(C)=O)C(=O)NCc1ccccc1 (single isomer, unassigned) [(S)-enantiomer of Lacosamide, reference compound]
- Total number lever press ([1]; dose 30 (mg/kg)): 1403 ± 158
- Suppression ratio (SR) ([1]; dose 30 (mg/kg)): 0.06 ± 0.03
- Efficacy in the CER assay (effect on SR), in words [1]: ineffective
- Efficacy in the marble burying assay, in words ([2]; mouse, in vivo): ineffective

SMILES: CC(=O)N[C@H](COC(F)F)C(=O)NCc1ccc(Cl)cc1 [Example 23.1, (2R)-2-(acetylamino)-N-(4-chlorobenzyl)-3-(difluoromethoxy)propanamide]
- Magnitude of the SR effect compared with diazepam [1]: equivalent to diazepam
- Total number lever press ([1]; dose 3 (mg/kg)): 1091 ± 169
- Suppression ratio (SR) ([1]; dose 3 (mg/kg)): 0.09 ± 0.04
- Total number lever press ([1]; dose 10 (mg/kg)): 1034 ± 131
- Suppression ratio (SR) ([1]; dose 10 (mg/kg)): 0.17 ± 0.04*
- Total number lever press ([1]; dose 30 (mg/kg)): 578 ± 79
- Suppression ratio (SR) ([1]; dose 30 (mg/kg)): 0.26 ± 0.04*
- Efficacy in the CER assay (effect on SR), in words [1]: active in increasing the SR in a dose-related manner
- Number of marbles buried [2, 6]: 15.8 ± 0.8
- Number of marbles buried [2, 7]: 12.3 ± 1.2
- Number of marbles buried [2, 8]: 2.0 ± 0.7
- Efficacy in the marble burying assay, in words ([2]; mouse, in vivo): active in decreasing marble burying in a dose-related manner
- Rotorod score ([3]; dose 3): 60 s
- Rotorod score ([3]; dose 10): 60 s
- Rotorod score ([3]; dose 30): 60 s

SMILES: CC(=O)N[C@H](COC(F)F)C(=O)NCc1ccc(F)cc1 [Example 20.1, (2R)-2-(Acetylamino)-3-(difluoromethoxy)-N-(4-fluorobenzyl)propanamide]
- Magnitude of the SR effect compared with diazepam [1]: equivalent to diazepam
- Total number lever press ([1]; dose 3 (mg/kg)): 1188 ± 95
- Suppression ratio (SR) ([1]; dose 3 (mg/kg)): 0.17 ± 0.06
- Total number lever press ([1]; dose 10 (mg/kg)): 1170 ± 98
- Suppression ratio (SR) ([1]; dose 10 (mg/kg)): 0.28 ± 0.07*
- Total number lever press ([1]; dose 20 (mg/kg)): 849 ± 78
- Suppression ratio (SR) ([1]; dose 20 (mg/kg)): 0.33 ± 0.06*
- Total number lever press ([1]; dose 30 (mg/kg)): 587 ± 84
- Suppression ratio (SR) ([1]; dose 30 (mg/kg)): 0.43 ± 0.05*
- Efficacy in the CER assay (effect on SR), in words [1]: active in increasing the SR in a dose-related manner
- Number of marbles buried [2, 6]: 15.0 ± 1.2
- Number of marbles buried [2, 7]: 14.9 ± 0.9
- Number of marbles buried [2, 8]: 10.3 ± 1.5
- Efficacy in the marble burying assay, in words ([2]; mouse, in vivo): active in decreasing marble burying in a dose-related manner
- Rotorod score ([3]; dose 3): 60 s
- Rotorod score ([3]; dose 10): 60 s
- Rotorod score ([3]; dose 30): 60 s
- melting point: 162.7 °C

SMILES: CC(=O)NC(COC(F)F)C(=O)NCc1ccccc1 (stereo not drawn)
- melting point: 173.3 °C

SMILES: CN1C(=O)CN=C(c2ccccc2)c2cc(Cl)ccc21 [Diazepam, reference compound]
- Total number lever press [1, 9]: 899 ± 146 and 1015 ± 155 and 1151 ± 138 and 1239 ± 183
- Suppression ratio (SR) [1, 9]: 0.39 ± 0.04* and 0.44 ± 0.03* and 0.32 ± 0.07*
- Number of marbles buried ([2]; dose 0.3, i.p or oral route): 12.6 ± 1.4
- Number of marbles buried ([2]; dose 1, i.p or oral route): 9.4 ± 1.7
- Number of marbles buried ([2]; dose 2, i.p or oral route): 2.2 ± 1.2
- Number of marbles buried [2, 6]: 2.0 ± 0.8
- Efficacy in the marble burying assay, in words ([2]; mouse, in vivo): produced a similar profile
- Rotorod score ([3]; dose 0.3): 60 s
- Rotorod score ([3]; dose 1): 60 s
- Rotorod score ([3]; dose 3): 40 s
- SR value typically reached with established anti-anxiety agents [4]: 0.4-0.5
- Effect of anti-anxiety drugs on marbles buried by mice, in words [5]: reduce the number of marbles buried

SMILES: COC[C@@H](NC(C)=O)C(=O)NCc1ccccc1 [Lacosamide, (+)-(2R)-2-(acetylamino)-N-benzyl-3-methoxypropanamide, reference compound]
- Magnitude of the SR effect compared with diazepam [1]: equivalent to diazepam
- Total number lever press ([1]; dose 3 (mg/kg)): 1166 ± 185
- Suppression ratio (SR) ([1]; dose 3 (mg/kg)): 0.16 ± 0.07
- Total number lever press ([1]; dose 10 (mg/kg)): 1121 ± 138
- Suppression ratio (SR) ([1]; dose 10 (mg/kg)): 0.18 ± 0.08
- Total number lever press ([1]; dose 30 (mg/kg)): 727 ± 123
- Suppression ratio (SR) ([1]; dose 30 (mg/kg)): 0.36 ± 0.07*
- Efficacy in the CER assay (effect on SR value), in words ([1]; doses 3-30 mg/kg i.p.): significantly increasing the SR value
- Number of marbles buried [2, 6]: 16.8 ± 0.8
- Number of marbles buried [2, 7]: 18.0 ± 0.7
- Number of marbles buried [2, 8]: 12.4 ± 1.4
- Efficacy in the marble burying assay, in words ([2]; oral doses of 3-30 mg/kg, compared to vehicle pretreated controls): significantly reducing the number of marbles buried
- Rotorod score ([3]; dose 3): 60 s
- Rotorod score ([3]; dose 10): 60 s
- Rotorod score ([3]; dose 30): 60 s
